By MIC is commonly meant the smallest concentration in the dilution series that meets the test's criterion for growth inhibition.

In brackets after ≈: the same amount, converted by molar mass.

Holding throughout (format): functional
The test system of experiment [1] is Trichophyton rubrum. As to the kind of experiment: Antifungal activity against Trichophyton rubrum IFO 9185 assessed as growth inhibition at 100 ug/disk at 37 degC for 48 hr. To be noted: IFO 9185, 48 h, read-out: IZ.
In experiment [2] the test system is Candida albicans. As to the kind of experiment: Antifungal activity against Candida albicans ATCC 10231 assessed as growth inhibition at 100 ug/disk at 37 degC for 48 hr. The following applies: ATCC 10231, 48 h, read-out: IZ.
For experiment [3], the system named is Aspergillus fumigatus. As to the kind of experiment: Antifungal activity against Aspergillus fumigatus HIC 6094 assessed as growth inhibition at 100 ug/disc at 37 degC for 48 hr. To be noted: HIC 6094, 48 h, read-out: IZ.
The test system of experiment [4] is Aspergillus fumigatus. As to the kind of experiment: Antifungal activity against Aspergillus fumigatus HIC 6094 assessed as growth inhibition at 37 degC for 48 hr. The following applies: HIC 6094, 48 h.
In experiment [5] the test system is Trichophyton mentagrophytes. As to the kind of experiment: Antifungal activity against Trichophyton mentagrophytes IFO 40996 assessed as growth inhibition at 100 ug/disc at 37 degC for 48 hr. To be noted: IFO 40996, 48 h, read-out: IZ.
Experiment [6] deals with Candida albicans. As to the kind of experiment: Antifungal activity against Candida albicans ATCC 10231 assessed as growth inhibition at 37 degC for 48 hr. To be noted: ATCC 10231, 48 h.
The subject of experiment [7] is Trichophyton rubrum. As to the kind of experiment: Antifungal activity against Trichophyton rubrum IFO 9185 assessed as growth inhibition at 37 degC for 48 hr. The following applies: IFO 9185, 48 h.
Experiment [8] deals with Trichophyton mentagrophytes. As to the kind of experiment: Antifungal activity against Trichophyton mentagrophytes IFO 40996 assessed as growth inhibition at 37 degC for 48 hr. The following applies: IFO 40996, 48 h.

In the case of `C[C@@H]1[C@H](O)[C@@H](C)/C=C/C=C/C=C/C=C/C=C/C=C/C=C/[C@H](O[C@@H]2O[C@H](C)[C@@H](O)[C@H](N)[C@@H]2O)C[C@@H]2O[C@](O)(C[C@@H](O)C[C@@H](O)[C@H](O)CC[C@@H](O)C[C@@H](O)CC(=O)O[C@H]1C)C[C@H](O)[C@H]2C(=O)O` [AMPHOTERICIN B], the zone of inhibition at 100 µg/disc with Trichophyton rubrum [1] was 20 mm; with Candida albicans [2], 25 mm; with Aspergillus fumigatus [3], 20 mm; in experiment [5] it was 18 mm. The MBC turned out to be 6.25 µg/mL (≈ 6.76 µM) in the experiment on Aspergillus fumigatus [4], 12.5 µg/mL (≈ 13.5 µM) with Candida albicans [6], 12.5 µg/mL (≈ 13.5 µM) with Trichophyton rubrum [7] and 12.5 µg/mL (≈ 13.5 µM) in experiment [8]. The MIC in the experiment on Aspergillus fumigatus [4] was 3.12 µg/mL (≈ 3.38 µM); in the experiment with Candida albicans [6], 6.25 µg/mL (≈ 6.76 µM); with Trichophyton rubrum [7], 3.12 µg/mL (≈ 3.38 µM); in experiment [8] it was 3.12 µg/mL (≈ 3.38 µM).

For the origin of these results see ChEMBL document CHEMBL3045223, “Synthesis, nematicidal and antimicrobial properties of Bis-[4-methoxy-3-[3-(4-fluorophenyl)-6-(4-methylphenyl)-2(aryl)-tetrahydro-2H-pyrazolo[3,4-d]thiazol-5-yl]phenyl]methanes” (2009).
